Experimental data reported in patent publication US6407072B1, “Lysoganglioside derivatives” (Fidia S.p.A., priority 1988, dated 2002).

Key:
Granule cells = assay: N2 anoxia in granule cells, viability by MTT; assay type: cell-based, rat; details: for protection against endogenous glutamate-induced neurotoxicity under anoxic conditions: anoxia in N2 chamber; for MTT O.D. (570-630): N2 anoxia in absence of Mg2+; for MTT O.D. (570-630) / MTT O.D. as % of Control (+ MG^2+): MTT after 24 hours; for MTT O.D. as % of Control (+ MG^2+): N2 anoxia
Protocol: Pretreatment was performed with LIGA 20 and 21 for 10 minutes, and with GM1 for 60 minutes. The cells are washed with serum and placed in anoxic conditions in the absence of Mg^+2 for 5 hours and replaced in the culture medium. Cell viability was measured 24 hours after with MTT.
(§1) 1.a. Primary cultures of cerebral granule cells from 8-day-old Sprague Dawley rats (Zivic Miller) [Gallo V. et al., Proc. Natl. Acad. Sci. USA 79, 7919-7923 (1982)]. These cultures contain >90% of granule cells, <5% of GABAergic neurons and <5% of glial cells [Vaccarino F. M. et al., J. Neurosci. 7, 65-76 (1987)]. The cells were used for the experiments on the 8th and 9th days of culture.
Effect of N-dichloro acetyl lyso GM1 following cell anoxia (in N2 chamber) on protection from endogenous glutamate-induced neurotoxicity. Cell viability is assessed by colorimetry after 24 hours (MTT stains only live cells).

new-born rat = assay: NMDA-induced neurotoxicity in new-born rat (mortality); assay type: in vivo; details: for mortality (deceased/treated) / relative mortality (% of treated): up to 5 days; for protection from mortality following i.c.v. injection of NMDA: s.c., 1 hour before and immediately after NMDA
Protocol: Newborn rats (7 days old) weighing about 13 g are injected with 25 nmol NMDA i.c.v. Under these conditions the excitotoxin induces a decrease of 28% in weight of the injected hemisphere and a mortality rate of 53.6%.
Administration of the compounds: injection method and parameters observed. […] The compounds were solubilized in PBS. The N-dichloro acetyl lyso GM1 and N-monochloro acetyl lyso GM1 derivatives were tested in comparison to magnesium sulfate, MK-801 (a non-competitive […] of the NMDA receptor) [G. McDonald et al., Eur. J. Pharmacol. 140: 153-157 (1987)] and kinurenic acid [P. Andiné, Neuro-science Letters, 90: 208-212 (1988)] which is capable of diminishing brain damage. Mortality was assessed 5 days after MNDA injection.

cerebral granule cells [1] = assay: Glutamate-induced neurotoxicity in primary cultures of cerebral granule cells (cell survival); assay type: cell-based, rat; details: for protection of cells from neurotoxic effect of glutamate, cotreatment: cotreatment 15 minutes with glutamate 50 μM; for protection from neurotoxic effect, cotreatment and prolonged incubation: cotreatment 35 minutes with glutamate, then prolonged exposure (35 minutes); for reversal of neurotoxic effect of glutamate by post-treatment: post-treatment 20 minutes, after glutamate administered intermittently; for prevention of glutamate-induced neurotoxicity: pretreatment for 2 hours; for concentration required for maximum protective effect: pretreatment
Protocol: as §1
(§2) On the 8th and 9th days of culture, concentrations varying between 7 and 100 μM of the following substances are added: N-dichloro acetyl lyso GM1, N-monochloro acetyl lyso GM1, GT1b, GM1. More particularly, the monolayers of granule cells are preincubated with these compounds in Locke's solution (1 ml) for 120 minutes (or for periods of time varying between 0 and 120 minutes) at 37° C. Gangliosides and derivatives are previously dissolved and subsequently diluted, if necessary, in methanol: H2O/95:5. Aliquots of the solution are dried in a N2 current and gathered with a suitable volume of Locke's solution until the final concentration is reached.
1.c. Glutamate-induced neurotoxicity.
The neurotoxic effect of glutamate was assessed under various experimental conditions:
Influence of incubation time ([…]) of the substances before exposure to glutamate: intact cells are preincubated with N-dichloro acetyl lyso GM1, N-monochloro acetyl lyso GM1 (7 μM) and GT1b (60 μM) at 37° C. After removal of excess compound by washing, the cells are incubated with 50 μM of glutamate in the absence of Mg+2 for 15 minutes at room temperature after which the cells are washed three more times and then replaced in the medium. Cell survival is assessed after 24 hours by histochemical techniques, or after […] staining which gives green fluorescence to live cells and red to non-living cells.
Influence of the time interval between pre-treatment with ganglioside derivatives or gangliosides themselves and exposure to glutamate: intact granule cells are preincubated for 2 hours at 37° C. with N-dichloro acetyl lyso GM1 (7 μM) GT1b and GM1 (100 μM). Excess compound is removed by washing and the cells exposed to 50 μM of glutamate (in the absence of Mg^+2) for 15 minutes after various time intervals (1, 2, 4, 6, 12, 18, 24 and 48 hours).
Effect of simultaneous treatment with glutamate and gangliosides: intact granule cells are treated (15 and 35 minutes) with 50 μM of glutamate and the gangliosides N-dichloro acetyl lyso GM1 (7 μM), GT1b and GM1 (100 μM) . In the first type of experiment (cotreatment for 15 minutes) the excess compound is removed by washing, and then cell survival is assessed according to the described method. In the second type of experiment (cotreatment for […]) the cotreatment is prolonged for another 35 minutes of exposure to gangliosides.
Effect of N-dichloro acetyl lyso GM1 following intermittent exposure to glutamate: granule cells are exposed intermittently to glutamate and treated with N-dichloro acetyl lyso GM1 (7 μM) for 20 minutes (in the absence of Mg2+). The excess product is removed by washing.

PKC [2] = assay: Translocation of PKC induced by glutamate: [3H]-phorbol ester binding on intact cells; assay type: cell-based, rat; details: for inhibition of PKC translocation, cotreatment and prolonged incubation: cotreatment 35 minutes with glutamate, then prolonged exposure (35 minutes)
Protocol: as §1, §2
1.d. Translocation of PKC induced by glutamate: assessment of [3H]-phorbol ester binding on intact cells.
The effects of binding of [3H]-phorbol ester are assessed under two different types of experimental conditions: […]
[…] After cotreatment the cells-are washed and [^3H]-PDBu binding is assessed in the presence of Mg^+2. Granule cells are grown on discs measuring 35 mm in diameter and then washed and incubated with Locke's solution containing 4-B-[^3H]-phorbol-12, 13-dibutyrate [^3H]-P(Bto)2, 12.5 Ci/mmol (1 Ci=37 GBq; New England Nuclear), in 0.1% fatty acid-free bovine albumin serum (Sigma Chemical Co.). […] The binding is constant for over one hour. After incubation the cells are washed 3 times with cold Locke's solution and suspended with NaOH 0.1M. The aliquots of suspension are used for protein determination [Lowry O. H. et al., J. Biol. Chem. 193, 256-275 (1951)]. Non-specific binding is assessed in the presence of 2 μM phorbol 12-tetradecanoate 13-acetate (PTA).

[3] = tested on: Mouse neuroblastoma cells (N2A); assay: MTT in N2A cells; assay type: cell-based
[4] = tested on: Mouse neuroblastoma cells (N2A); assay: Neuritogenic activity in N2A cells: morphology, % of cells with neurites; assay type: cell-based
Protocol: Mouse neuroblastoma cells (N2A) at the 180th passage are placed in wells at a concentration of 10,000 cells per well (COSTAR-24). The next day the medium was substituted with 350 μl of DMEM+P/G+10% FCS.
All compounds are dissolved in chloroform/methanol 2:1 dried in N2 current and resuspended in DMEM+P/G+10% FCS. The number of neurites is assessed 24 hours later.

[5] = tested on: Mouse neuroblastoma cells (N2A); assay: 3H Tdr in N2A cells; assay type: cell-based
PKC [6] = details: exposure of cerebral granule cells; literature reports; cited from earlier work
cerebral granule cells [7] = details: literature reports; cited from earlier work
[8] = 200 nMoli/animal sc, 1 hr before and immediately after NMDA 25 nMoli i.c.v.
[9] = cotreatment with glutamate 50 μM, 7 μM
[10] = 75 nMoli/animal (2 mg/kg) i.p., 1 hr before and immediately after NMDA
[11] = preincubated 2 hours at 100 μM, glutamate 50 μM

| Molecule | protection against endogenous glutamate-induced neurotoxicity under anoxic conditions (Granule cells) | MTT O.D. (570-630) (Granule cells; pretreated 5 μm, 10 min) [O.D.] | MTT O.D. as % of Control (+ MG^2+) (Granule cells; pretreated 5 μm, 10 min) [%] | mortality (deceased/treated) (new-born rat; [8]) | relative mortality (% of treated) (new-born rat; [8]) [%] | protection from mortality following i.c.v. injection of NMDA (new-born rat) | concentration required for maximum protective effect (cerebral granule cells [1]; glutamate 50 μM) [µM] | MTT (48 hr) n = 3 ([3]; 1 × 10^−4 M) | Morphology (24 hr) % of cells with neurites ([4]; 1 × 10^−4 M) | ^3H Tdr. (48 hr) n = 3 ([5]; 1 × 10^−4 M) | translocation and activation of PKC induced by glutamate (PKC [6]) | protection of cells from neurotoxic effect of glutamate, cotreatment (cerebral granule cells [1]; 100 μM) | protection from neurotoxic effect, cotreatment and prolonged incubation (cerebral granule cells [1]; 100 μM) | persistence of protective effect on glutamate-induced neurotoxicity after removal of the medium (cerebral granule cells [1]; [11]) | protection from glutamate-induced cell damage (cerebral granule cells [7]) | inhibition of PKC translocation, cotreatment and prolonged incubation (PKC [2]; 100 μM) | also measured |
| --- | --- | --- | --- | --- | --- | --- | --- | --- | --- | --- | --- | --- | --- | --- | --- | --- | --- |
| CCCCCCCCCCCCCC=CC(O)C(COC1OC(CO)C(OC2OC(CO)C(OC3OC(CO)C(O)C(OC4OC(CO)C(O)C(O)C4O)C3NC(C)=O)C(OC3(C(=O)O)CC(O)C(NC(C)=O)C(C(O)C(O)CO)O3)C2O)C(O)C1O)NC(=O)C(Cl)Cl (stereo not drawn) [LIGA 20, N-dichloroacetyl Lyso GM1] | active | 0.163 ± 0.012 | 112 | 1/8 | 12.5 | protected | 7 |  |  |  |  |  |  |  |  |  | concentration for maximum effect, times less than that of GT1b (cerebral granule cells [1]; 7 μM vs 60 μM): more than 8 times; preincubation time after which protection is evident (cerebral granule cells [1]; 7 μM, glutamate 50 μM): 5 min; protection of cells from neurotoxic effect of glutamate, cotreatment (cerebral granule cells [1]; 7 μM): effective; protection from neurotoxic effect, cotreatment and prolonged incubation (cerebral granule cells [1]; 7 μM): effective; reversal of neurotoxic effect of glutamate by post-treatment (cerebral granule cells [1]; 7 μM): prevents; reversal of neurotoxic effect of glutamate by post-treatment (cerebral granule cells [1]; 7 μM, listed as N-dichloro acetyl lyso GM1): active; persistence of protective effect on glutamate-induced neurotoxicity after removal of the medium (cerebral granule cells [1]; preincubated 2 hours at 7 μM, glutamate 50 μM): at least 24 hours; prevention of glutamate-induced neurotoxicity (cerebral granule cells [1]; 7 μM, glutamate 50 μM): almost totally prevents; inhibition of PKC translocation, cotreatment and prolonged incubation (PKC [2]; 7 μM): effective; inhibition of PKC translocation induced by glutamate, cotreatment (PKC [2]; [9]): inhibits; time of maximum activity in inhibiting PKC translocation (PKC [2]; [9]): 30 min |
| CCCCCCCCCCCCC/C=C/[C@@H](O)[C@H](CO[C@@H]1O[C@H](CO)[C@@H](O[C@@H]2O[C@H](CO)[C@H](O[C@@H]3O[C@H](CO)[C@H](O)[C@H](O[C@@H]4O[C@H](CO)[C@H](O)[C@H](O)[C@H]4O)[C@H]3NC(C)=O)[C@H](O[C@]3(C(=O)O)C[C@H](O)[C@@H](NC(C)=O)[C@H]([C@H](O)[C@H](O)CO)O3)[C@H]2O)[C@H](O)[C@H]1O)NC(=O)CCl [LIGA 21, N-Monochloroacetyl Lyso GM1] | active | 0.152 ± 0.013 | 105 | 0/8 | 0 | protected |  | 0.158 ± 0.01 | 80-90% | 14256 ± 1594 |  |  |  |  |  |  | MTT (48 hr) n = 3 ([3]; 5 × 10^−5 M): 0.243 ± 0.008; MTT (48 hr) n = 3 ([3]; 5 × 10^−6 M): 0.324 ± 0.01; Morphology (24 hr) % of cells with neurites ([4]; 5 × 10^−5 M): 80-90%; Morphology (24 hr) % of cells with neurites ([4]; 5 × 10^−6 M): <5%; concentration range of protection (cerebral granule cells [1]; glutamate-induced neurotoxicity): ~10 µM; ^3H Tdr. (48 hr) n = 3 ([5]; 5 × 10^−5 M): 36016 ± 5030; ^3H Tdr. (48 hr) n = 3 ([5]; 5 × 10^−6 M): 43035 ± 487 |
| C[C@]12N[C@H](Cc3ccccc31)c1ccccc12 [MK 801, reference compound] |  |  |  |  |  |  |  |  |  |  |  |  |  |  |  |  | mortality (deceased/treated) (new-born rat; [10]): 6/16; relative mortality (% of treated) (new-born rat; [10]): 37% |
| N′-monochloro acetyl lyso GM1 [LIGA 22] |  |  |  |  |  |  |  |  | <5% |  |  |  |  |  |  |  |  |
| monosialosyl-N-tetraglycosyl-ceramide [GM1, reference compound] |  |  |  |  |  |  |  | 0.259 ± 0.007 | 70-80% | 40834 ± 1885 | inhibits | is not | effective | no more than 1 hours | offer protection | effective | MTT O.D. (570-630) (Granule cells; pretreated 100 μM, 60 min): 0.160 ± 0.010 O.D.; MTT O.D. as % of Control (+ MG^2+) (Granule cells; pretreated 100 μM, 60 min): 110% |
| trisialosyl-N-tetraglycosylceramide [GT1b, reference compound] |  |  |  |  |  |  | 60 |  |  |  | inhibits | is not | effective | 4 h | offer protection | effective | incubation time after which protection is significant (cerebral granule cells [1]; 60 μM, glutamate 50 μM): 60 min; prevention of glutamate-induced neurotoxicity (cerebral granule cells [1]; 60 μM, glutamate 50 μM): almost totally prevents |
